Test results from PMC5224969 (ChemMedChem, 2016).
Read-outs that look alike come from different tables or passages of the source.

What was measured:
BV-173 cells = experiment: MTT cell viability assay, BV-173; assay type: cell-based, human; conditions: read-out: IC50 BV-173
Panc-1 cells = experiment: MTT cell viability assay, Panc-1; assay type: cell-based, human
K562 cells = experiment: MTT cell viability assay, K562; assay type: cell-based, human; conditions: read-out: IC50 K562
[1] = test system: PTK panel (Abl, Csk, Src); experiment: P32 kinase assay, average over the PTK panel; assay type: biochemical; conditions: average of Abl, compared to dasatinib
Src [2] = biological target: T1, Src (Homo sapiens, UniProt P12931); experiment: standard P32 kinase assay, IC50, Src catalytic domain; assay type: biochemical; conditions: for Net change in IC50 (%Dasatinib) Src: compared to dasatinib; for IC50: read-out: IC50 Src, P32 kinase assay, polyE4Y substrate, 200 μM ATP
Abl [3] = biological target: T2, Abl (Homo sapiens, UniProt P00519); experiment: standard P32 kinase assay, IC50, Abl; assay type: biochemical; conditions: for Net change in IC50 (%Dasatinib) Abl: compared to dasatinib; for IC50: read-out: IC50 Abl, P32 kinase assay, CrkL substrate, 200 μM ATP
Csk = Csk (Homo sapiens, UniProt P41240); experiment: standard P32 kinase assay, IC50, Csk; assay type: biochemical; conditions: for Net change in IC50 (%Dasatinib) Csk: compared to dasatinib; for IC50: read-out: IC50 Csk, P32 kinase assay, polyE4Y substrate, 200 μM ATP
[4] = stability in mouse plasma, LC/MS/MS; assay type: in vitro ADME
Src [5] = biological target: T1, Src; experiment: screening at a fixed concentration against Src; assay type: biochemical; conditions: fixed concentration 250 pM
Abl [6] = biological target: T2, Abl; experiment: screening at a fixed concentration against Abl; assay type: biochemical; conditions: fixed concentration 250 pM

T2 sequence (P00519 whole entry, species assumed): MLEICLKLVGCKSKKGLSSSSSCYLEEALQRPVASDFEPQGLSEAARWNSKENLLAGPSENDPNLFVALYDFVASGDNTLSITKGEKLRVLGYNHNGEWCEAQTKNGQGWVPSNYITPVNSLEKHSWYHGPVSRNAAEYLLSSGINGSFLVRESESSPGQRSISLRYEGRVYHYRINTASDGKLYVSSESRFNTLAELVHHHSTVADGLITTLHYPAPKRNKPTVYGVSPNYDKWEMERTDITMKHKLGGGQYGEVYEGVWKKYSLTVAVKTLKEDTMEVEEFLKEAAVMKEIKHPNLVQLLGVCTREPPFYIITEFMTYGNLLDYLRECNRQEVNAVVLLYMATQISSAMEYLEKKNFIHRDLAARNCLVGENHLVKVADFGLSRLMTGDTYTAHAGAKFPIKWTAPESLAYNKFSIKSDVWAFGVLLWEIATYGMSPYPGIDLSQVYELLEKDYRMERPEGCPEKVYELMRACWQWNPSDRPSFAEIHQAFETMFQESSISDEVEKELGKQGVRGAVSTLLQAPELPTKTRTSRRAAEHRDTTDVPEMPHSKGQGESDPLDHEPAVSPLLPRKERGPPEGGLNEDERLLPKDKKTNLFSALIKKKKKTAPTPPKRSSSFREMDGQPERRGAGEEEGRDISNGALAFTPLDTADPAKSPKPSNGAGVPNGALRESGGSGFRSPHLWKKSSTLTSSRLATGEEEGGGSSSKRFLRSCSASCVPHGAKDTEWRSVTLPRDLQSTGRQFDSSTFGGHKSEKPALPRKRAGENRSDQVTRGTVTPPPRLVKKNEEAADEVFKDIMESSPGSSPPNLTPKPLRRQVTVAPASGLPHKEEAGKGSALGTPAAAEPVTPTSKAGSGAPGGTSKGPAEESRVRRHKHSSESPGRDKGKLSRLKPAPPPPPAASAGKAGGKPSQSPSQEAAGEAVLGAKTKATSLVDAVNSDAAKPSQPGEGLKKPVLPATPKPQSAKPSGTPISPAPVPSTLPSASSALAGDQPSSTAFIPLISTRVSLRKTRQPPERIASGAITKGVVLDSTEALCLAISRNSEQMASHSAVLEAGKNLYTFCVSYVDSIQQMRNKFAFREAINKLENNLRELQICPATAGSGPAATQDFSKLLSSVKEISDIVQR
Csk, sequence (P41240 whole entry, species assumed): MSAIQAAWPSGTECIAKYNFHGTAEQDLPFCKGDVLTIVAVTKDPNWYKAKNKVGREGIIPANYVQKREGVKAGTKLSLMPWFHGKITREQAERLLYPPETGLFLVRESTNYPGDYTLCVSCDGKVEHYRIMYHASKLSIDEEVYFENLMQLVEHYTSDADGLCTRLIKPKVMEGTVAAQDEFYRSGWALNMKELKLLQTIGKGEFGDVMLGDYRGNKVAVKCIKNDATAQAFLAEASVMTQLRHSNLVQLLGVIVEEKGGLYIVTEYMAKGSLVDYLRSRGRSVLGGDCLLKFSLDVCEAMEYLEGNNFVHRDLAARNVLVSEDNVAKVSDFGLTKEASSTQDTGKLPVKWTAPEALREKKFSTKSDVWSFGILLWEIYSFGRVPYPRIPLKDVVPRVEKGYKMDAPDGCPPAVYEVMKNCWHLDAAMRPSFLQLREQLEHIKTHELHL
T1 sequence (P12931 270-523 limits assumed, species assumed): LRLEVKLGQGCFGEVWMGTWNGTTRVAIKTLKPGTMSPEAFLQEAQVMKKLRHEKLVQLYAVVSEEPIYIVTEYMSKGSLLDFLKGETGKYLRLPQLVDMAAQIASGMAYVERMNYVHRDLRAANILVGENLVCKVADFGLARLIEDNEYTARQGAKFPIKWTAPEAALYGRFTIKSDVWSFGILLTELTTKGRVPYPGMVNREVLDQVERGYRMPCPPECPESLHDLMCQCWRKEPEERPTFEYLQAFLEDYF

| Structure (SMILES) | IC50 (BV-173 cells; Homo sapiens, BV-173, 72 h) [nM] | IC50 (Panc-1 cells; Homo sapiens, PANC-1, 72 h, read-out: IC50 Panc-1) [µM] | IC50 (K562 cells; Homo sapiens, K562, 72 h) [nM] | Net change in IC50 (%Dasatinib) Avg [1] [%] | Net change in IC50 (%Dasatinib) Src (Src [2]) [%] | IC50 (Src [2]) [nM] | Selectivity A/S (ratio of IC50 Abl over Src) (Abl [3]) | Net change in IC50 (%Dasatinib) Abl (Abl [3]) [%] | IC50 (Abl [3]) [nM] | Selectivity C/A (ratio of IC50 Csk over Abl) (Csk) | Selectivity C/S (ratio of IC50 Csk over Src) (Csk) | Net change in IC50 (%Dasatinib) Csk (Csk) [%] | IC50 (Csk) [nM] | stability in mouse plasma ([4]; 0, 15, 30, 60, 120 min, dasatinib formation monitored) | T1/2 in mouse plasma ([4]; 0-120 min incubation) [min] | inhibition relative to dasatinib, Src (Src [5]) | inhibition relative to dasatinib, Abl (Abl [6]) | IC50 (BV-173 cells; MTT, 72 h) [nM] | IC50 Panc-1 (Panc-1 cells; MTT, 72 h) | IC50 (K562 cells; MTT, 72 h) [nM] |
| --- | --- | --- | --- | --- | --- | --- | --- | --- | --- | --- | --- | --- | --- | --- | --- | --- | --- | --- | --- | --- |
| Cc1nc(Nc2ncc(C(=O)Nc3c(C)cccc3Cl)s2)cc(N2CCN(CCO)CC2)n1 [Compound 1, N-(2-chloro-6-methylphenyl)-2-((6-(4-(2-hydroxyethyl)piperazin-1-yl)-2-methylpyrimidin-4-yl)amino)thiazole-5-carboxamide, reference compound] | < 0.0512 | 26.3 | < 0.0512 |  |  |  |  |  |  |  |  |  |  |  |  |  |  |  |  |  |
| Cc1nc(Nc2ncc(C(=O)Nc3c(C)cccc3Cl)s2)cc(N2CCN(CCOC(=O)[C@H](C)N)CC2)n1 [Compound 3] |  |  |  | 163 | 5 | < 0.39 | > 7.7 | 285 | 3 | 7.0 | > 53.8 | 200 | 21 |  |  |  |  |  |  |  |
| CC(=O)OCCN1CCN(c2cc(Nc3ncc(C(=O)Nc4c(C)cccc4Cl)s3)nc(C)n2)CC1 [Compound 16] |  |  |  | 46 | −11 | < 0.33 | > 6.4 | 169 | 2.1 | 2.6 | > 16.7 | −21 | 5.5 | completely metabolized | < 5 | inhibited comparably to dasatinib | inhibited comparably to dasatinib | < 0.0512 | no activity | < 0.0512 |
| CN[C@@H]1C[C@H]2O[C@@](C)([C@@H]1OC)n1c3ccccc3c3c4c(c5c6ccccc6n2c5c31)C(=O)NC4 [Staurosporine, staurosporine] | 4.77 |  |  |  |  |  |  |  |  |  |  |  |  |  |  |  |  |  |  |  |
